Each structure is given as a SMILES string. Several values for one entry are separate records, joined by “and”; a condition that tells them apart may be missing. Equal values may be shown once. Entries after “also recorded” stand apart in the source; their conditions may differ.

For data set [1], the system named is 480 kinases. In words: Eurofins KINOMEscan selectivity profile. Format: binding. The following applies: Bentamapimod and Tanzisertib at 1 μM.
Data set [2] deals with T1, ERK1 (Homo sapiens, UniProt P27361).
T1 construct: purchased ThermoFisher (SelectScreen, outsourced service)
In words: ThermoFisher SelectScreen, ERK1. It counts as binding.

Data set [3] deals with 12Z cells. In words: Phosphorylation of Jun and JNK in IL-1β-treated 12Z cells. It counts as cell-based, human.
The test system of data set [4] is endometriotic lesions. Nature of the data set: Mouse model of induced endometriosis. The following applies: 14 days of treatment. As to the method:
FIG. 22A presents the design of an in vivo model in which JNK-I were evaluated for their ability to cause regression of endometriosis in mice. […] In this experimental design, endometriosis is induced by introducing isolated endometrial tissues from a donor mouse, and the prepared endometrial cells are introduced into the peritoneal cavity of recipient mice. Fourteen (14) days after induction of endometriosis, drug treatments are initiated and continued for 14 days. At the end of study (i.e., 28 days) the presence of endometriosis lesions are determined and various measurements performed.

Data set [5] in a line: Plasma ALT and AST after oral administration. The following applies: 24 h post-dose, individual mice 1-4. Format: in vivo, mouse.
Data set [6] can be described thus: Plasma ALT and AST after intraperitoneal administration. It counts as in vivo, mouse. The following applies: 24 h post-dose, individual mice 1-3.
Data set [7] relates to human endometriotic stromal cells (patient 143). In words: IL-1β-stimulated pro-inflammatory gene expression in primary endometriotic stromal cells, patient 143. It counts as cell-based. The following applies: patient 143, relative to CDD-939. An excerpt:
Similar to patient “50”, lower concentrations of CDD-2728 were required to reduce the proinflammatory response of IL-1β in stromal cells on these measured genes than in 12Z epithelial cells.
To confirm and further support the results described herein, endometriotic stromal cell cultures were established from a second patient. For compliance purposes, this set of cell culture results are identified as Eosis143. These are stromal cells obtained from the lining of an ovarian endometrioma cyst wall.

Data set [8] addresses T2, CLK3 (Homo sapiens, UniProt P49761).
T2 construct: purchased ThermoFisher (SelectScreen, outsourced service)
In words: ThermoFisher SelectScreen, CLK3. Format: binding.

Data set [9] deals with 12Z endometriotic epithelial cells. Nature of the data set: IL-1β-stimulated pro-inflammatory gene expression (qPCR) in 12Z cells. It counts as cell-based, human. The following applies: relative to bentamapimod. The source says:
These studies indicate that NanoBRET assays are an innovative technical platform to measure target engagement of CDD JNK inhibitors with the target JNK1, JNK2 or JNK3. As further evidence that JNK inhibitors address disease-relevant endpoints, biological responses of JNK inhibitors are provided herein, as measured in target tissue cellular models. 12Z immortalized endometriotic epithelial cells and patient-derived endometriotic stromal cells have been cultured with reference compound bentamapimod, CDD-2628, and CDD-2728. To exemplify the effects of CDD-2628 and CDD-2728 in the endometrial cell cultures, gene expression was measured using qPCR (expressed as fold-change relative to GAPDH, a housekeeping gene that is not affected by culture treatment effects) that reflect synthesis of inflammatory lipids (PTGS2), transformation of cells to a more migration and invasive potential (MMP-3) and chemoattractant cytokines to recruit pro-inflammatory immune cells (IL-6, IL-8).
In the culture systems employed in FIGS. 12A-12J, FIGS. 13A-13B, FIGS. 14A-14H, FIGS. 15A-15H, and FIGS. 16A-16F, the treatment of cells with IL-1β is used to mimic the peritoneal environment where IL-1β is most frequently measured at higher concentrations in patients with endometriosis (0.1 ng/mL-1 ng/mL) than in unaffected women (<0.01 ng/mL). The use of IL-1β to mimic the pro-inflammatory environment is a common method in cellular assays for endometriosis research. Although the concentrations of IL-1β in these cell cultures are higher than measured in peritoneal fluid, there are multiple other pro-inflammatory cytokines in peritoneal fluid that contribute to the pro-inflammatory environment.
Specifically, 12Z cells were plated at a density of 1×10^5 cells/well in a 12-well tissue culture plate, serum-starved overnight (17-18 h), pre-treated with vehicle (DMSO) or JNK inhibitor for 30 minutes, then stimulated with 10 ng/ml IL-1β in the presence or absence of the JNK inhibitors for 6 hours. After the 6-hour treatment, mRNA was extracted from the cells using the Qiagen RNEasy mini isolation kit and […] of mRNA was reverse transcribed into cDNA using the qScript cDNA Supermix (Quanta Biosciences). cDNA was amplified using SYBR Green Master Mix (Applied Biosystems) with quantitative Real Time PCR (BioRad CFX) using pre-designed and validated primers specific for genes encoding IL6, IL8, PTGS2/COX2, and MMP3 (BioRad). Relative quantification of these specific genes was calculated by the ΔΔCt method, normalizing their abundance relative to the internal housekeeping gene, GAPDH, followed by quantification relative to the vehicle-treated cells. Statistical analyses and visualizations were performed using a One Way ANOVA with a Tukey's multiple comparison post-hoc test on GraphPad Prism version 9.
A general note: In qPCR the cycle at which signal appears reflects the starting amount.

In data set [10] the test system is endometriotic lesions. In words: Immunofluorescent staining of endometriotic lesions from treated mice. It counts as in vivo. The following applies: 14 days, intraperitoneal. An excerpt:
FIG. 23 depicts immunofluorescent staining of sections of remaining endometriotic lesions following 14 days of treatment with CDD-2728 or with a vehicle solution (i.e., Captisol) by intraperitoneal administration.
This illustrates a common mechanism of JNK-I from the chemical series of the disclosure and their ability to target endometriotic lesions, and the innate immune cells that drive an inflammatory response within the lesions.

Data set [11] deals with iHEEC. Nature of the data set: Beta-catenin expression in IL-1β-treated iHEEC. It counts as cell-based, human. Also noted: beta-catenin expression at cell contact points: dose or concentration left out as unconfirmed. As to the method: FIGS. 29A-29C depict the impact of JNK inhibition on the cellular expression of beta-catenin located at the cell surface and throughout the cytoplasm of iHEEC, wherein HEEC cells were treated with vehicle (FIG. 29A), IL-1β (FIG. 29B), or IL-1β and […] CDD-2728 (FIG. 29C). The increased cytoplasmic and plasma membrane expression of β-catenin following exposure to IL-1β supports the role of β-catenin in facilitating epithelial-to-mesenchymal transdifferentiation. The cellular morphology is consistent with that of columnar epithelial cells. iHEEC were treated with JNK-I or vehicle for 30 min before addition of IL-1β, followed by incubation of cells for another 15 minutes. Addition of IL-1β over this short time course caused a dramatic change in the expression of beta-catenin in iHEEC endometriotic epithelial cells, and a noticeable change in phospho-JNK throughout the cytoplasm, induced by IL-1β. Beta catenin expression at contact points between cells is increased by IL-1β, and inhibited by CDD-2728.

T1 sequence (P27361 whole entry): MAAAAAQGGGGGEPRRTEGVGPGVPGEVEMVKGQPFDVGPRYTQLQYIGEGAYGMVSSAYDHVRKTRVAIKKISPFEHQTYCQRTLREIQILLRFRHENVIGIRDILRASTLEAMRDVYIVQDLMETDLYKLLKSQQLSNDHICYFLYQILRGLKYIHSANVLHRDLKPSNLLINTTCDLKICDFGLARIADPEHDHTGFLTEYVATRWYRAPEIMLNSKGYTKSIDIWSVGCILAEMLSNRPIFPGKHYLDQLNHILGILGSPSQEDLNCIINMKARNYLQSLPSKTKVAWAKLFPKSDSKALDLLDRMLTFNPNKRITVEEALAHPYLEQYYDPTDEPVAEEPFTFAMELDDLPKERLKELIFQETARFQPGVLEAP
T2 sequence (P49761 whole entry): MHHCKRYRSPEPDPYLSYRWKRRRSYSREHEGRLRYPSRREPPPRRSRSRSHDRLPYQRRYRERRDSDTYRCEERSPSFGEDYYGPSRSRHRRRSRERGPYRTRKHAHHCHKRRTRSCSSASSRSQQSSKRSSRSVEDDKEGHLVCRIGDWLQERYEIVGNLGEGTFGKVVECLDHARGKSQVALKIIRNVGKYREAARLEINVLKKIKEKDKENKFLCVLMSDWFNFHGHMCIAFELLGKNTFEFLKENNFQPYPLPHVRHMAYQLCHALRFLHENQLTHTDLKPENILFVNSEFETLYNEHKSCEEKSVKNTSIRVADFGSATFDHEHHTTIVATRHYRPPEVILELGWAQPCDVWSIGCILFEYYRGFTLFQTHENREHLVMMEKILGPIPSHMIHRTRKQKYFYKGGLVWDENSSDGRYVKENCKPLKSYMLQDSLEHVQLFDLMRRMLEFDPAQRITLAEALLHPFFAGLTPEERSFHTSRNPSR

As to `CNCc1ccc(NC(=O)c2ccn3ncc(-c4cnc5[nH]ccc5c4)c3c2)cc1` [CDD-2346, N-(4-((methylamino)methyl)phenyl)-3-(1H-pyrrolo[2,3-b]pyridin-5-yl)pyrazolo[1,5-a]pyridine-5-carboxamide], the “KINOMEscan selectivity / inhibition” value in data set [1] is recorded as “selectivity of CDD-2346 was inadequate”.

The term Kd denotes a measure of binding affinity in units of concentration. Compound `CN(C)C(=O)c1cc(NC(=O)c2cc3c(-c4cnc5[nH]ccc5c4)cccc3s2)ccc1O` [CDD-2728, N-(3-(dimethylcarbamoyl)-4-hydroxyphenyl)-4-(1H-pyrrolo[2,3-b]pyridin-5-yl)benzo[b]thiophene-2-carboxamide] came in with a dissociation constant (Kd) in [2] of 909 nM. For the same compound, the “inhibition of ERK1/2” value in [2] (ERK1/2, in words) is given as “only modest inhibition of ERK1/2”. Further, the “phosphorylation of JNK1 or JNK2” value in [3] is “undetectable changes”. For the same compound, the “phosphorylation of Jun relative to total Jun” value in [3] (relative to bentamapimod) was “superior efficacy”. For the same compound, the “impact on uterine, liver or kidney weight / other tissues” value in data set [4] is reported as “no impact”. In addition, in data set [5], the ALT is 43.49 IU/L and 21.92 IU/L and 36.24 IU/L and 30.94 IU/L; the AST is 69.13 IU/L and 76.02 IU/L and 61.79 IU/L and 41.64 IU/L. In addition, in data set [6], the ALT was 87.34 IU/L and 29.17 IU/L and 23.07 IU/L; the AST is 78.94 IU/L and 38.37 IU/L and 35.80 IU/L. Also, in data set [7], the “inhibition of IL-6, IL-8, MMP-3 and PTGS2 gene expression” value is “at lower doses than was required for inhibition of expression of these genes by CDD-939; also recorded: superior to bentamapimod in efficacy of suppression and potency”. For the same compound, binding in data set [8] was put at a Kd of 1020 nM. Also, in data set [9], the IL-6 expression entry is given as “equally effective”, the IL-8 expression entry is reported as “more potent inhibitors of IL-8 expression than bentamapimod; also recorded: effectively suppressed IL-8 production”, the MMP-3 expression entry is on record as “more potent than CDD-939 at inhibiting MMP-3 expression; also recorded: more effective than bentamapimod” and the PTGS2 expression result was “more effective than bentamapimod”. Moreover, in [10], the “CD31 (endothelial cells, angiogenesis)” value is “reduces the presence of cells corresponding to leukocytes, platelets, and endothelial cells (CD31); also recorded: angiogenesis (anti-CD31 antibody)”; the “macrophage infiltration (F4/80)” value is given as “decreases infiltration of endometriotic lesions by macrophages (F4/80)”; the “proliferation of lesions (Ki67)” value is recorded as “reduced rates of proliferative cell growth; also recorded: reduced cellular proliferation”. Moreover, in data set [11] (short time course, iHEEC), the “cell viability or cell density” value is “no apparent changes in cell viability or cell density”. Also, the “beta-catenin expression at cell contact points” value in data set [11] (with IL-1β) is on record as “inhibited”.
